# Values joined by “and” are separate entries in the source; they are usually repeats but may differ in a detail not shown here. Equal values may be shown once. Toxic doses and inconclusive results are not listed.
# System: BDF1 mice, P388 leukemia ip, median survival T/C
# Experiment: NCI In Vivo Anticancer Drug Screen. Data for tumor model P388 Leukemia (intraperitoneal) in B6D2F1 (BDF1) mice
# Settings: endpoint: median survival time, higher = longer survival
# In short: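 Each value expresses how treatment altered survival: treated-mouse outcome over vehicle-mouse outcome, both groups bearing the transplanted tumour.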
# [1] = dose: 6.25 mg/kg/injection, schedule: Q01DX009 (ip), vehicle: saline with Tween-80
# [2] = dose: 50.0 mg/kg/injection, schedule: Q01DX009 (ip), vehicle: saline with Tween-80
# [3] = dose: 100.0 mg/kg/injection, schedule: Q01DX009 (ip), vehicle: saline with Tween-80
# [4] = dose: 200.0 mg/kg/injection, schedule: Q01DX009 (ip), vehicle: saline with Tween-80
# [5] = dose: 100.0 mg/kg/injection, schedule: Q04DX003 (ip), vehicle: saline with Tween-80
# [6] = dose: 200.0 mg/kg/injection, schedule: Q04DX003 (ip), vehicle: saline with Tween-80
# [7] = dose: 100.0 mg/kg/injection, schedule: Q04DX003 (ip), vehicle: saline
# [8] = dose: 200.0 mg/kg/injection, schedule: Q04DX003 (ip), vehicle: saline
# [9] = dose: 400.0 mg/kg/injection, schedule: Q04DX003 (ip), vehicle: saline
# [10] = dose: 50.0 mg/kg/injection, schedule: Q01DX005 (ip), vehicle: saline with Tween-80
# [11] = dose: 100.0 mg/kg/injection, schedule: Q01DX005 (ip), vehicle: saline with Tween-80
# [12] = dose: 200.0 mg/kg/injection, schedule: Q01DX005 (ip), vehicle: saline with Tween-80
# [13] = dose: 50.0 mg/kg/injection, schedule: Q01DX009 (ip), vehicle: saline
# [14] = dose: 12.5 mg/kg/injection, schedule: Q01DX009 (ip), vehicle: saline with Tween-80
# [15] = dose: 25.0 mg/kg/injection, schedule: Q01DX009 (ip), vehicle: saline with Tween-80
structure (smiles),measurement,setting,value
COC(=O)C12Oc3ccc(-c4ccc5c(c4O)C(O)=C4C(=O)CC(C)C(O)C4(C(=O)OC)O5)c(O)c3C(O)=C1C(=O)CC(C)C2O (stereo not drawn),T/C,"dose: 0.39 mg/kg/injection, schedule: Q01DX009 (ip), vehicle: saline with Tween-80",100 % of control
same,T/C,"dose: 0.78 mg/kg/injection, schedule: Q01DX009 (ip), vehicle: saline with Tween-80",109 % of control
same,T/C,"dose: 0.78 mg/kg/injection, schedule: Q01DX009 (ip), vehicle: saline",100 % of control
same,T/C,"dose: 1.56 mg/kg/injection, schedule: Q01DX009 (ip), vehicle: saline with Tween-80",104 % of control and 109 % of control
same,T/C,"dose: 3.13 mg/kg/injection, schedule: Q01DX009 (ip), vehicle: saline with Tween-80",104 % of control and 109 % of control
same,T/C,"dose: 3.13 mg/kg/injection, schedule: Q01DX009 (ip), vehicle: saline",93 % of control
same,T/C,[1],101 % of control
COC(=O)c1c2ccccc2cn1-c1ccccc1,T/C,[2],100 % of control
same,T/C,[3],109 % of control
same,T/C,[4],100 % of control
N=C(Oc1ccccc1)c1ccccc1,T/C,[2],100 % of control
same,T/C,[3],102 % of control
same,T/C,[4],102 % of control
Oc1c(Cl)cc(Cl)c2cccnc12,T/C,"dose: 12.5 mg/kg/injection, schedule: Q01DX010 (ip), vehicle: carboxymethylcellulose (CMC)",104 % of control
same,T/C,"dose: 25.0 mg/kg/injection, schedule: Q01DX010 (ip), vehicle: carboxymethylcellulose (CMC)",104 % of control
same,T/C,"dose: 50.0 mg/kg/injection, schedule: Q01DX010 (ip), vehicle: carboxymethylcellulose (CMC)",104 % of control
CCNS(=O)(=O)c1ncnc2nc[nH]c12,T/C,[3],100 % of control
same,T/C,[5],104 % of control
same,T/C,[4],100 % of control
same,T/C,[6],100 % of control
same,T/C,"dose: 400.0 mg/kg/injection, schedule: Q01DX009 (ip), vehicle: saline with Tween-80",100 % of control
same,T/C,"dose: 400.0 mg/kg/injection, schedule: Q04DX003 (ip), vehicle: saline with Tween-80",100 % of control
O=C(Cn1ccc(=O)[nH]c1=O)N1CCC2(CC1)SSC1(CCN(C(=O)Cn3ccc(=O)[nH]c3=O)CC1)S2,T/C,[7],100 % of control
same,T/C,[8],109 % of control
same,T/C,[9],90 % of control
O=C(O)c1cc2c(Br)cccc2c2cc(C(F)(F)F)ccc12,T/C,"dose: 50.0 mg/kg/injection, schedule: Q04DX003 (ip), vehicle: saline sonified",95 % of control
same,T/C,"dose: 100.0 mg/kg/injection, schedule: Q04DX003 (ip), vehicle: saline sonified",100 % of control
same,T/C,"dose: 200.0 mg/kg/injection, schedule: Q04DX003 (ip), vehicle: saline sonified",100 % of control
CN1CC2CC(C1)c1cccc(=O)n1C2 (stereo not drawn),T/C,"dose: 5.0 mg/kg/injection, schedule: Q01DX010 (ip), vehicle: saline",86 % of control
same,T/C,"dose: 10.0 mg/kg/injection, schedule: Q01DX010 (ip), vehicle: saline",109 % of control
same,T/C,"dose: 20.0 mg/kg/injection, schedule: Q01DX010 (ip), vehicle: saline",104 % of control
same,T/C,"dose: 40.0 mg/kg/injection, schedule: Q01DX010 (ip), vehicle: saline",95 % of control
CC(=O)CSc1ncnc2nc[nH]c12,T/C,[3],109 % of control
same,T/C,[4],109 % of control
COC(=O)CCCCI,T/C,[10],105 % of control
same,T/C,[11],110 % of control
same,T/C,[12],107 % of control
COC(=O)c1cc(-c2ccccc2)[nH]c1-c1ccccc1,T/C,[13],92 % of control
Cc1nc2ccccc2c(=O)n1-c1nccs1,T/C,[10],102 % of control
same,T/C,[11],107 % of control
same,T/C,[12],102 % of control
CN(C)c1ccc(C(=O)NN)cc1,T/C,[1],91 % of control
same,T/C,[14],91 % of control
same,T/C,[15],122 % of control
same,T/C,"dose: 25.0 mg/kg/injection, schedule: Q04DX003 (ip), vehicle: saline with Tween-80",100 % of control
same,T/C,[2],115 % of control
same,T/C,"dose: 50.0 mg/kg/injection, schedule: Q04DX003 (ip), vehicle: saline with Tween-80",98 % of control
same,T/C,[3],121 % of control
same,T/C,[5],107 % of control
same,T/C,[4],100 % of control
same,T/C,[6],109 % of control
same,T/C,"dose: 300.0 mg/kg/injection, schedule: Q01DX009 (ip), vehicle: saline with Tween-80",106 % of control
Cc1cc(N)no1,T/C,"dose: 100.0 mg/kg/injection, schedule: Q01DX009 (ip), vehicle: saline",92 % of control
same,T/C,[7],104 % of control
same,T/C,"dose: 200.0 mg/kg/injection, schedule: Q01DX009 (ip), vehicle: saline",96 % of control
same,T/C,[8],95 % of control
same,T/C,"dose: 400.0 mg/kg/injection, schedule: Q01DX009 (ip), vehicle: saline",92 % of control
same,T/C,[9],100 % of control
CC(C)CCCC(C)C1CCC2C3CC=C4CC(S[As](C)C)CCC4(C)C3CCC12C (stereo not drawn),T/C,[2],98 % of control
same,T/C,[3],95 % of control
same,T/C,[4],98 % of control
NC(CC[Se]CC(N)C(=O)O)C(=O)O (stereo not drawn),T/C,"dose: 0.5 mg/kg/injection, schedule: Q01DX010 (ip), vehicle: saline",90 % of control
same,T/C,"dose: 1.0 mg/kg/injection, schedule: Q01DX010 (ip), vehicle: saline",104 % of control
same,T/C,"dose: 2.0 mg/kg/injection, schedule: Q01DX010 (ip), vehicle: saline",100 % of control
same,T/C,"dose: 4.0 mg/kg/injection, schedule: Q01DX010 (ip), vehicle: saline",104 % of control
O=N/N=c1/sc2ccccc2n1-c1ccccc1,T/C,"dose: 25.0 mg/kg/injection, schedule: Q01DX001 (ip), vehicle: saline sonified",100 % of control
same,T/C,"dose: 50.0 mg/kg/injection, schedule: Q01DX001 (ip), vehicle: saline sonified",104 % of control
same,T/C,"dose: 100.0 mg/kg/injection, schedule: Q01DX001 (ip), vehicle: saline sonified",100 % of control
Cc1cn(C2CC(O)C(CO)O2)c(=O)[nH]c1=O (stereo not drawn),T/C,"dose: 500.0 mg/kg/injection, schedule: Q04DX003 (ip), vehicle: saline",101 % of control
same,T/C,"dose: 750.0 mg/kg/injection, schedule: Q04DX003 (ip), vehicle: saline",111 % of control
same,T/C,"dose: 1000.0 mg/kg/injection, schedule: Q04DX003 (ip), vehicle: saline",104 % of control
CCCCCCCCCCCCCCCCCCCC/C=C/C1CC(=O)OC1=O (stereo not drawn),T/C,"dose: 75.0 mg/kg/injection, schedule: Q01DX009 (ip), vehicle: Klucel (hydroxypropylcellulose) (HPC)",95 % of control
same,T/C,"dose: 100.0 mg/kg/injection, schedule: Q04DX003 (ip), vehicle: Klucel (hydroxypropylcellulose) (HPC)",100 % of control
same,T/C,"dose: 150.0 mg/kg/injection, schedule: Q01DX009 (ip), vehicle: Klucel (hydroxypropylcellulose) (HPC)",95 % of control
same,T/C,"dose: 200.0 mg/kg/injection, schedule: Q04DX003 (ip), vehicle: Klucel (hydroxypropylcellulose) (HPC)",87 % of control
same,T/C,"dose: 300.0 mg/kg/injection, schedule: Q01DX009 (ip), vehicle: Klucel (hydroxypropylcellulose) (HPC)",86 % of control
same,T/C,"dose: 400.0 mg/kg/injection, schedule: Q04DX003 (ip), vehicle: Klucel (hydroxypropylcellulose) (HPC)",87 % of control
O=c1[nH]cnc2[nH]ccc12,T/C,[1],99 % of control
same,T/C,[14],103 % of control
same,T/C,[15],96 % of control
same,T/C,[2],99 % of control
[Cl][Hg][c]1ccc2ccccc2c1,T/C,"dose: 12.5 mg/kg/injection, schedule: Q01DX009 (ip), vehicle: gum acacia",112 % of control
COc1cccc2c1C(=O)c1c(O)c3c(c(O)c1C2=O)CC(O)(/C(C)=N\NC(=O)N/N=C(\C)C1(O)Cc2c(O)c4c(c(O)c2C(OC2CC(N)C(O)C(C)O2)C1)C(=O)c1c(OC)cccc1C4=O)CC3OC1CC(N)C(O)C(C)O1 (stereo not drawn),T/C,"dose: 3.13 mg/kg/injection, schedule: Q04DX003 (ip), vehicle: water",108 % of control
same,T/C,"dose: 6.25 mg/kg/injection, schedule: Q04DX003 (ip), vehicle: water",117 % of control
same,T/C,"dose: 12.5 mg/kg/injection, schedule: Q04DX003 (ip), vehicle: water",117 % of control
same,T/C,"dose: 50.0 mg/kg/injection, schedule: Q04DX003 (ip), vehicle: water",153 % of control
same,T/C,"dose: 100.0 mg/kg/injection, schedule: Q04DX003 (ip), vehicle: water",162 % of control
Cc1nc(NN)c(C(N)=O)nc1C,T/C,"dose: 12.5 mg/kg/injection, schedule: Q01DX009 (ip), vehicle: saline",97 % of control
same,T/C,"dose: 25.0 mg/kg/injection, schedule: Q01DX009 (ip), vehicle: saline",89 % of control
same,T/C,"dose: 25.0 mg/kg/injection, schedule: Q04DX003 (ip), vehicle: saline",106 % of control
same,T/C,[13],93 % of control and 120 % of control
same,T/C,"dose: 50.0 mg/kg/injection, schedule: Q04DX003 (ip), vehicle: saline",102 % of control
Cc1cc(Cl)n[nH]1,T/C,[15],98 % of control
